Patent US20220153746A1, “NITROGEN OXIDE-DONATING PDE-5 AND/OR PDE-6 INHIBITOR COMPOUNDS, AND USES THEREOF” (ILDONG PHARMACEUTICAL CO., LTD., priority 2020, published 2022)
Where two headings read alike, the source gives them in different places.

Experiment: PK Phase (Group 2): plasma concentrations and pharmacokinetics of Compound 18 and its metabolite Compound 4 after once daily ocular instillation of Compound 18 nanosuspension for 7 days
Format: in vivo, New Zealand white rabbits
Source text: This example illustrates the procedures and results for the levels of Compound 18 and its metabolite Compound 4 in plasma and ocular tissues of normotensive rabbits following ocular instillation of Compound 18 once daily for 7 consecutive days.
Twenty five (25) male New Zealand white rabbits were divided into 5 groups of varying amounts of animals per group.
The Test article, Compound 18 was formulated as a 2% nanosuspension in DI water containing 0.2% PS80 (polyoxyethylenesorbitan, monooleate (Tween 80)) and 0.4% HPMC (hydroxypropylmethylcellulose) at pH 6.77. Referred to herein as “Compound 18 nanosuspension.”
The study consisted of three groups (Groups 1-3) of 19 male rabbits (NZW) that underwent once daily morning ocular installation (1 eyedrop) for 7 consecutive days (Day 0-6). Groups 4-5 each consisted of 3 male rabbits (NZW) that were not dosed.
Blood samples (1 mL) were collected from the jugular vein at the intervals set out below for each group. The samples were then inverted several times following collection and held on wet ice until centrifuged. Samples were centrifuged within 60 minutes of collection under refrigeration (set at 5° C. for 10 minutes at 2000 g. […]
Plasma and tissue samples from treated animals (Groups 1-3) were analyzed for Compound 18 and its metabolite Compound 4 concentrations by LC-MS/MS.
Pharmacokinetic analysis was conducted using WinNonlin Version 6.2.1 (Pharsight, Mountain View, Calif.), operating as a validated software system. Noncompartmental analysis was conducted using the extravascular administration model for ocular instillation dosing.
The peak plasma concentration, time to achieve peak plasma concentration, half-life, and area under the plasma concentration-time curve (Cmax, Tmax, T1/2, and AUC) were calculated from the PK phase individual animal plasma concentrations for each sampling time/dose group for Compound 18 and its metabolite Compound 4.
BA Assay: Quantitation Range 0.05 to 100 ng/mL for Compound 18, 0.15 to 100 ng/mL for Compound 4.
Plasma calibration standards (PLSTD-A) with Compound 18 concentrations ranging from 0.0500 to 100 ng/mL were prepared by spiking control rabbit plasma with appropriate calibration curve spiking solutions (SS-A). PLQC-A samples with concentrations of 0.150, 5.00, 50.0, and 80.0 ng/mL were prepared by spiking control rabbit plasma with appropriate SS-A-QC spiking solutions.
Plasma calibration standards (PLSTD-B) with Compound 4 concentrations ranging from 0.150 to 100 ng/mL were prepared by spiking control rabbit plasma with appropriate calibration curve spiking solutions (SS-B). PLQC-B samples with concentrations of 0.450, 5.00, 50.0, and 80.0 ng/mL were prepared by spiking control rabbit plasma with appropriate SS-B-QC spiking solutions. PLQC-B-Dil samples at 800 ng/mL were prepared by spiking control rabbit plasma with the SS-B-QC-Dil spiking solution at 16,000 ng/mL, and then diluted 20× with control rabbit plasma prior to extraction.
1. Thaw plasma standards, plasma QC samples, ocular tissue QC samples, incurred plasma samples and ocular tissue samples (AH/VH) (if applicable) on wet ice. Control plasma can be thawed in tepid water. Vortex before taking aliquots.
2. Pipet 50 μL of water for Reagent Blank, 50 μL of control plasma for Double Blank and Blank, 50 μL of pre-spiked plasma for Standards and QC samples, 50 μL of incurred plasma samples (if applicable) into a 96 well plate.
5. Add 200 μL of working internal standard (WIS) solution to all remaining samples.
6. Seal the plate and vortex for approximately 5 minutes. Centrifuge the plate at 3500 rpm for 10 minutes at ˜4° C.
7. Transfer ˜200 μL of each sample supernatant into the appropriate wells of a 96 well plate. Submit for LC MS/MS analysis.
A total of 25 rabbits were used for this study, including 19 treated rabbits and 6 control rabbits. […]

## CCCc1nn(C)c2c(=O)[nH]c(-c3cc(S(=O)(=O)N4CC(CCCO[N+](=O)[O-])C4)ccc3OCC)nc12 [Compound 18, 3-(1-((4-ethoxy-3-(1-methyl-7-oxo-3-propyl-6,7-dihydro-1H-pyrazolo[4,3-d]pyrimidin-5-yl)phenyl)sulfonyl)azetidin-3-yl)propyl nitrate]
0.5 h, animal 207665
  Day 7 Compound 18 Plasma Concentration: BQL (BQL = Below lower limit of quantitation (0.0500 ng/mL for Compound 18)
1 h, animal 207664
  Day 1 Compound 18 Plasma Concentration: BQL^a (BQL = Below lower limit of quantitation (0.0500 ng/mL for Compound 18)
1 h, animal 207665
  Day 1 Compound 18 Plasma Concentration: BQL (BQL = Below lower limit of quantitation (0.0500 ng/mL for Compound 18)
  Day 7 Compound 18 Plasma Concentration: BQL (BQL = Below lower limit of quantitation (0.0500 ng/mL for Compound 18)
2 h, animal 207664
  Day 1 Compound 18 Plasma Concentration: BQL (BQL = Below lower limit of quantitation (0.0500 ng/mL for Compound 18)
2 h, animal 207665
  Day 1 Compound 18 Plasma Concentration: BQL (BQL = Below lower limit of quantitation (0.0500 ng/mL for Compound 18)
  Day 7 Compound 18 Plasma Concentration: BQL (BQL = Below lower limit of quantitation (0.0500 ng/mL for Compound 18)
2 h, animal 207666
  Day 1 Compound 18 Plasma Concentration: BQL (BQL = Below lower limit of quantitation (0.0500 ng/mL for Compound 18)
2 h, animal 207667
  Day 7 Compound 18 Plasma Concentration: BQL (BQL = Below lower limit of quantitation (0.0500 ng/mL for Compound 18)
4 h, animal 207664
  Day 1 Compound 18 Plasma Concentration: BQL (BQL = Below lower limit of quantitation (0.0500 ng/mL for Compound 18)
  Day 7 Compound 18 Plasma Concentration: BQL (BQL = Below lower limit of quantitation (0.0500 ng/mL for Compound 18)
4 h, animal 207665
  Day 1 Compound 18 Plasma Concentration: BQL (BQL = Below lower limit of quantitation (0.0500 ng/mL for Compound 18)
  Day 7 Compound 18 Plasma Concentration: BQL (BQL = Below lower limit of quantitation (0.0500 ng/mL for Compound 18)
4 h, animal 207667
  Day 1 Compound 18 Plasma Concentration: BQL (BQL = Below lower limit of quantitation (0.0500 ng/mL for Compound 18)
  Day 7 Compound 18 Plasma Concentration: BQL (BQL = Below lower limit of quantitation (0.0500 ng/mL for Compound 18)
8 h, animal 207664
  Day 1 Compound 18 Plasma Concentration: BQL (BQL = Below lower limit of quantitation (0.0500 ng/mL for Compound 18)
  Day 7 Compound 18 Plasma Concentration: BQL (BQL = Below lower limit of quantitation (0.0500 ng/mL for Compound 18)
8 h, animal 207665
  Day 1 Compound 18 Plasma Concentration: BQL (BQL = Below lower limit of quantitation (0.0500 ng/mL for Compound 18)
8 h, animal 207666
  Day 1 Compound 18 Plasma Concentration: BQL (BQL = Below lower limit of quantitation (0.0500 ng/mL for Compound 18)
8 h, animal 207667
  Day 1 Compound 18 Plasma Concentration: BQL (BQL = Below lower limit of quantitation (0.0500 ng/mL for Compound 18)
  Day 7 Compound 18 Plasma Concentration: BQL (BQL = Below lower limit of quantitation (0.0500 ng/mL for Compound 18)
24 h, animal 207664
  Day 1 Compound 18 Plasma Concentration: BQL (BQL = Below lower limit of quantitation (0.0500 ng/mL for Compound 18)
  Day 7 Compound 18 Plasma Concentration: BQL (BQL = Below lower limit of quantitation (0.0500 ng/mL for Compound 18)
24 h, animal 207665
  Day 1 Compound 18 Plasma Concentration: BQL (BQL = Below lower limit of quantitation (0.0500 ng/mL for Compound 18)
  Day 7 Compound 18 Plasma Concentration: BQL (BQL = Below lower limit of quantitation (0.0500 ng/mL for Compound 18)
24 h, animal 207667
  Day 1 Compound 18 Plasma Concentration: BQL (BQL = Below lower limit of quantitation (0.0500 ng/mL for Compound 18)
Groups 1-3, Compound 18 nanosuspension 1 drop/eye/day for 7 days, except animal #207664 discolored skin and rapid respiratory rate on Day 7
  In-life observations: normal following dosing
male, New Zealand white, rabbit, plasma, other: ocular instillation (eye drop), 0.821 mg/kg/day, 0.5 h, Mean of 4 animals, BQL set to 0, read-out: Day 7 Compound 18 Plasma Concentration
  concentration at 0.5 h: 0.0811 ng/mL
male, New Zealand white, rabbit, plasma, other: ocular instillation (eye drop), 0.821 mg/kg/day, 0.5 h, animal 207664, read-out: Day 7 Compound 18 Plasma Concentration
  concentration at 0.5 h: 0.0978 ng/mL
male, New Zealand white, rabbit, plasma, other: ocular instillation (eye drop), 0.821 mg/kg/day, 0.5 h, animal 207666, read-out: Day 7 Compound 18 Plasma Concentration
  concentration at 0.5 h: 0.163 ng/mL
male, New Zealand white, rabbit, plasma, other: ocular instillation (eye drop), 0.821 mg/kg/day, 0.5 h, animal 207667, read-out: Day 7 Compound 18 Plasma Concentration
  concentration at 0.5 h: 0.0634 ng/mL
male, New Zealand white, rabbit, plasma, other: ocular instillation (eye drop), 0.821 mg/kg/day, 1 h, Mean of 4 animals, BQL set to 0, read-out: Day 7 Compound 18 Plasma Concentration
  concentration at 1 h: 0.15 ng/mL
male, New Zealand white, rabbit, plasma, other: ocular instillation (eye drop), 0.821 mg/kg/day, 1 h, animal 207664, read-out: Day 7 Compound 18 Plasma Concentration
  concentration at 1 h: 0.306 ng/mL
male, New Zealand white, rabbit, plasma, other: ocular instillation (eye drop), 0.821 mg/kg/day, 1 h, animal 207666, read-out: Day 7 Compound 18 Plasma Concentration
  concentration at 1 h: 0.131 ng/mL
male, New Zealand white, rabbit, plasma, other: ocular instillation (eye drop), 0.821 mg/kg/day, 1 h, animal 207667, read-out: Day 7 Compound 18 Plasma Concentration
  concentration at 1 h: 0.161 ng/mL
male, New Zealand white, rabbit, plasma, other: ocular instillation (eye drop), 0.821 mg/kg/day, 2 h, Mean of 4 animals, BQL set to 0, read-out: Day 1 Compound 18 Plasma Concentration
  concentration at 2 h: 0.0208 ng/mL
male, New Zealand white, rabbit, plasma, other: ocular instillation (eye drop), 0.821 mg/kg/day, 2 h, Mean of 4 animals, BQL set to 0, read-out: Day 7 Compound 18 Plasma Concentration
  concentration at 2 h: 0.0657 ng/mL
male, New Zealand white, rabbit, plasma, other: ocular instillation (eye drop), 0.821 mg/kg/day, 2 h, animal 207664, read-out: Day 7 Compound 18 Plasma Concentration
  concentration at 2 h: 0.188 ng/mL
male, New Zealand white, rabbit, plasma, other: ocular instillation (eye drop), 0.821 mg/kg/day, 2 h, animal 207666, read-out: Day 7 Compound 18 Plasma Concentration
  concentration at 2 h: 0.0747 ng/mL
male, New Zealand white, rabbit, plasma, other: ocular instillation (eye drop), 0.821 mg/kg/day, 2 h, animal 207667, read-out: Day 1 Compound 18 Plasma Concentration
  concentration at 2 h: 0.083 ng/mL
male, New Zealand white, rabbit, plasma, other: ocular instillation (eye drop), 0.821 mg/kg/day, 4 h, Mean of 4 animals, BQL set to 0, read-out: Day 1 Compound 18 Plasma Concentration
  concentration at 4 h: 0.0164 ng/mL
male, New Zealand white, rabbit, plasma, other: ocular instillation (eye drop), 0.821 mg/kg/day, 4 h, Mean of 4 animals, BQL set to 0, read-out: Day 7 Compound 18 Plasma Concentration
  concentration at 4 h: 0.017 ng/mL
male, New Zealand white, rabbit, plasma, other: ocular instillation (eye drop), 0.821 mg/kg/day, 4 h, animal 207666, read-out: Day 1 Compound 18 Plasma Concentration
  concentration at 4 h: 0.0655 ng/mL
male, New Zealand white, rabbit, plasma, other: ocular instillation (eye drop), 0.821 mg/kg/day, 4 h, animal 207666, read-out: Day 7 Compound 18 Plasma Concentration
  concentration at 4 h: 0.0678 ng/mL
male, New Zealand white, rabbit, plasma, other: ocular instillation (eye drop), 0.821 mg/kg/day, 8 h, Mean of 4 animals, BQL set to 0, read-out: Day 1 Compound 18 Plasma Concentration
  concentration at 8 h: 0 ng/mL
